Test results as given in PMC6877910, “Astrocyte-Targeted Transporter-Utilizing Derivatives of Ferulic Acid Can Have Multifunctional Effects Ameliorating Inflammation and Oxidative Stress in the Brain” (Oxidative Medicine and Cellular Longevity, 2019).

Assays:
[1] = tested on: peroxidase activity of cyclooxygenases (COX); test: Peroxidase activity of cyclooxygenases in cell lysates (fluorometric kit); format: biochemical; conditions: 100 μM; 30 min; assay does not differentiate COX from LOX
Experimental: A coupled oxidation-reduction fluorometric assay was used to assess the inhibitory effect of compounds (100 μM) together with positive controls on the peroxidase activity of cyclooxygenases (COX) (ab204699 Cyclooxygenase Activity Assay Kit, Abcam, Cambridge, UK). The method has been done and validated according to the manufacturer's protocol. Briefly, studied compounds (100 μM) and the reaction mixture were incubated with the cell lysates at room temperature and the reaction was initiated by adding arachidonic acid/NaOH solution. The fluorescence was read in a kinetic mode after every 15 seconds for 30 minutes by the EnVision plate reader (EnVision, PerkinElmer, Inc., Waltham, MA, USA) at λex 535 nm and λem 587 nm.

[2] = tested on: mTOR; test: Total amount of mTOR (ELISA) in cells; format: cell-based, mouse; conditions: 48 h
Experimental: Enzyme-Linked Immunosorbent Assay (ELISA) kits were used (mTOR SimpleStep ELISA Kit and NFκB p65 Total SimpeStep ELISA Kit, Abcam, Cambridge, UK) to quantify mammalian (or mechanistic) target of rapamycin (mTOR) and transcription factor NF-κB amounts, respectively. […] The control wells were treated with the solvent only (0.5% DMSO). Cells were solubilized using the provided extraction buffer with the kit, incubated on ice for 20 minutes and centrifuged at 18 000 × g for 20 min at 4°C. The supernatants were stored at -80°C till the day of the analysis. Standards and samples were then analyzed following the manufacturer's protocol (ELISA sandwich method) and by reading the absorbance with the EnVision plate reader (EnVision, PerkinElmer, Inc., Waltham, MA, USA) at 450 nm. The results were analyzed as pmol of formed mTOR or NF-κB per mL.

[3] = biological target: T1, purified human BACE1 (Homo sapiens, UniProt P56817); test: BACE1 FRET inhibition assay (SensoLyte 520); format: biochemical; conditions: 0.25 μM; 30 min
T1 construct: purchased AnaSpec, Inc., Fremont, CA, USA SensoLyte 520 BACE1 Assay kit (catalogue number not given)
T1 sequence (P56817 46-501): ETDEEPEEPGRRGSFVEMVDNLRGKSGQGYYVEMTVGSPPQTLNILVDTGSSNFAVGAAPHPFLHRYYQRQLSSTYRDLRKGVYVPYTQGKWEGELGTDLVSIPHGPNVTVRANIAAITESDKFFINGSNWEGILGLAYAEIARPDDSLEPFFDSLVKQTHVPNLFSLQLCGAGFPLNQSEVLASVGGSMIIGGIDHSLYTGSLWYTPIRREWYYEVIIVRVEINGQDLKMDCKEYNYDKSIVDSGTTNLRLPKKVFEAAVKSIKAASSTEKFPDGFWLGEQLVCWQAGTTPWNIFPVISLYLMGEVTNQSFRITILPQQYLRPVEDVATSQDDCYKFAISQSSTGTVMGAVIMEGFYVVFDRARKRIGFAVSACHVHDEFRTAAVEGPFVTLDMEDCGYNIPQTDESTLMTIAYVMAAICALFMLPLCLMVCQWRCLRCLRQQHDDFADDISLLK
Source text: A fluorometric assay was used to screen the inhibitory effect of the studied compounds on purified human BACE1 using a fluorescence resonance energy transfer (FRET) peptide technique (SensoLyte© 520 BACE1 Assay kit, AnaSpec, Inc., Fremont, CA, USA) according to the manufacturer's protocol. […] The sequence of the FRET peptide has been derived from the β-secretase cleavage site of β-amyloid precursor protein (APP) with Swedish mutation, which enhances β-secretase to process APP resulting in an early onset of AD. Thus, active β-secretase cleaved FRET substrate into two separate fragments resulting in the release of HiLyte™ Fluor 488 fluorescence that was measured by the EnVision plate reader (EnVision, PerkinElmer, Inc., Waltham, MA, USA) at λex 490 nm and λem 520 nm. […] The results were reported as percentages (%), with control sample representing 100% β-secretase activity.

O=C(O)Cc1ccccc1Nc1c(Cl)cccc1Cl [DCF, diclofenac]
Inhibition of peroxidase activity of COX enzymes [1]: 18%

CN(C)C(=N)N=C(N)N [metformin]
Reduction of total amount of mTOR ([2]; 100 μM): did not affect

NCC1(CC(=O)O)CCCCC1 [gabapentin]
Reduction of total amount of mTOR ([2]; 100 μM): 46-49%

KTEEISEVN-Sta-VAEF-NH2 [reference compound]
BACE1 inhibition [3]: ca. 85%

CO[C@H]1C[C@@H]2CC[C@@H](C)[C@@](O)(O2)C(=O)C(=O)N2CCCC[C@H]2C(=O)O[C@H]([C@H](C)C[C@@H]2CC[C@@H](O)[C@H](OC)C2)CC(=O)[C@H](C)/C=C(\C)[C@@H](O)[C@@H](OC)C(=O)[C@H](C)C[C@H](C)/C=C/C=C/C=C/1C [rapamycin]
Reduction of total amount of mTOR ([2]; 1 μM): 46-49%
